According to BindingDB's records for doi:10.3109/14756366.2011.572879 (Ataturk University, 2012):
Counter-ions that a name gives are not always drawn.

Target: T1, Glutathione reductase, mitochondrial (Homo sapiens, UniProt P00390)
T1 sequence (P00390 whole entry): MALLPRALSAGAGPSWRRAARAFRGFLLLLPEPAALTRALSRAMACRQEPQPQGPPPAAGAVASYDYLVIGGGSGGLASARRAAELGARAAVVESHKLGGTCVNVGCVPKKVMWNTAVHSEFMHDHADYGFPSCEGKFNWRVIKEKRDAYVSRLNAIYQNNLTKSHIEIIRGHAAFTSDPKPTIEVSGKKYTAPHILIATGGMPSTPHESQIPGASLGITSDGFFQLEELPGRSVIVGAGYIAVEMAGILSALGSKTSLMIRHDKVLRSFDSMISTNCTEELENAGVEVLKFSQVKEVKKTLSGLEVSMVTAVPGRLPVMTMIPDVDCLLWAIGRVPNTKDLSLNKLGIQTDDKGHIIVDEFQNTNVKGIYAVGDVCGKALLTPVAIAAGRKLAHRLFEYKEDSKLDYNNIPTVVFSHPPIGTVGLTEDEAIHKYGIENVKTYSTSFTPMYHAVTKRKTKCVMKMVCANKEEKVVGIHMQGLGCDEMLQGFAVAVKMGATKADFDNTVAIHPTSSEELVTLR
Experiment: Activity Assay
Conditions: pH 8; 25 °C
Experimental: The assay system contained 40 mM Tris-HCl buffer, pH 8.0, including 0.8 mM EDTA, 1 mM GSSG and 0.1 mM NADPH in 1 mL total reaction volume. The activity was measured by monitoring the decrease in absorbance at 340 nm due to the oxidationof NADPH at 25°C. One enzyme unit is defined as the oxidation of […] NADPH per min under the assay conditions.

| SMILES | IC50 [µM] | Ki [µM] |
| --- | --- | --- |
| OC(CNc1ccccn1)c1ccccc1 (stereo not given) [Phenyramidol-HCl] | 990 | 434 |
| CN1CCC(=C2c3ccccc3CC(=O)c3sccc32)CC1 [(Z)-2-butenedioate;10-(1-methyl-4-piperidinylidene)-5H-benzo[1,2]cyclohepta[3,4-b]thiophen-4-one] | 12 | 0.8 |
| O=C(O)CN(CCN(CC(=O)O)CC(=O)O)CCN(CC(=O)O)CC(=O)O [Gadopentetic acid] |  | 28800 |
